According to patent US20250214978A1, “AT2R AGONIST” (WUHAN HUMANWELL INNOVATIVE DRUG RESEARCH AND DEVELOPMENT …, priority 2022, published 2025):
Where two headings read alike, the source gives them in different places. One block for each compound: values may come before it.

Experiments:
CYP2C19 = CYP2C19 (Homo sapiens (Human), UniProt P33261); assay: CYP inhibition assay in mixed human liver microsomes; type: in vitro ADME; details: mixed (pooled) human liver microsomes, read-out: Inhibition rate % CYP2C19
Sequence of CYP2C19 (P33261 whole entry): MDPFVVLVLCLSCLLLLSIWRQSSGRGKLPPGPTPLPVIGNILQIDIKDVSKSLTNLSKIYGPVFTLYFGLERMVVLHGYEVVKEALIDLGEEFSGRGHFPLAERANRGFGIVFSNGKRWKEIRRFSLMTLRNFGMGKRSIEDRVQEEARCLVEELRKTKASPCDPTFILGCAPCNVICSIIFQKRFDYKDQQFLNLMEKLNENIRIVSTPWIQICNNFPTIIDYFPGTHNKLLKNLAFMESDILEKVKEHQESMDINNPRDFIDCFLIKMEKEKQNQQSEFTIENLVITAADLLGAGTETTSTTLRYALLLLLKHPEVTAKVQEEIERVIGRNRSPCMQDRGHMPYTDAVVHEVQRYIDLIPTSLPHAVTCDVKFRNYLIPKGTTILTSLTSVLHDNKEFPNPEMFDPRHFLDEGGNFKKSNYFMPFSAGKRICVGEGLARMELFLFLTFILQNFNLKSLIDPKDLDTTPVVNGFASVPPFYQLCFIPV
Method: (§1) The inhibitory effects of the compounds on seven enzymes, i.e., CYP1A2, CYP2C9, CYP2C19, CYP2D6, CYP3A4 (midazolam), CYP2B6, and CYP2C8, were evaluated at a concentration of 10 μM. Mixed human liver microsomes, which were previously stored in a −80° C. refrigerator before use, were taken out and thawed in a water bath at 37° C. before use, and placed on ice for further operation. 100 μL of microsome working solution was taken, and added with 2 μL of test product or positive inhibitor working solution. 2 μL of solvent was added to the solvent control. The mixture was pre-incubated in a water bath at 37° C. for 10 minutes. After preincubation, 98 μL of NADPH regeneration solution was added to all samples to initiate the reaction. Then, the samples were put back into the water bath and incubated for a period of time. The reaction was quenched with 200 μL of stop solution. The plate was centrifuged at 3,220 g for 10 minutes, 100 μL of supernatant was transferred, and 100 μL of water was added and mixed well to the assay plate for LC/MS/MS analysis.

CYP2D6 = CYP2D6 (Homo sapiens (Human), UniProt P10635); assay: as above; type: in vitro ADME; details: mixed (pooled) human liver microsomes, read-out: Inhibition rate % CYP2D6
Sequence of CYP2D6 (P10635 whole entry): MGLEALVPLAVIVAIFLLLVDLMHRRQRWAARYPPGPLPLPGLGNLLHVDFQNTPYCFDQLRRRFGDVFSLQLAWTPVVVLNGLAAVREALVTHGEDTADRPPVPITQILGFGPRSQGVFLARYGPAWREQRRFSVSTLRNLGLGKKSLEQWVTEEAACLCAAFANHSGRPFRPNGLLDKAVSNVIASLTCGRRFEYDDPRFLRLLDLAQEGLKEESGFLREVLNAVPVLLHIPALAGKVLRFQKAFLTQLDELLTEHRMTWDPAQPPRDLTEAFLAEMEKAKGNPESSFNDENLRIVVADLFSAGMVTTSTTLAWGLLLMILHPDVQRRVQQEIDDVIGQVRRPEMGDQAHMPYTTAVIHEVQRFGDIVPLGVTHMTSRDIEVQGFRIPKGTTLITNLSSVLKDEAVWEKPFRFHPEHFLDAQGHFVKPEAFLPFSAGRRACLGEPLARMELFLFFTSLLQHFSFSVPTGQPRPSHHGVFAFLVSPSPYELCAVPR
Method: as §1

CYP2B6 = CYP2B6 (Homo sapiens (Human), UniProt P20813); assay: as above; type: in vitro ADME; details: mixed (pooled) human liver microsomes, read-out: Inhibition rate % CYP2B6
Sequence of CYP2B6 (P20813 whole entry): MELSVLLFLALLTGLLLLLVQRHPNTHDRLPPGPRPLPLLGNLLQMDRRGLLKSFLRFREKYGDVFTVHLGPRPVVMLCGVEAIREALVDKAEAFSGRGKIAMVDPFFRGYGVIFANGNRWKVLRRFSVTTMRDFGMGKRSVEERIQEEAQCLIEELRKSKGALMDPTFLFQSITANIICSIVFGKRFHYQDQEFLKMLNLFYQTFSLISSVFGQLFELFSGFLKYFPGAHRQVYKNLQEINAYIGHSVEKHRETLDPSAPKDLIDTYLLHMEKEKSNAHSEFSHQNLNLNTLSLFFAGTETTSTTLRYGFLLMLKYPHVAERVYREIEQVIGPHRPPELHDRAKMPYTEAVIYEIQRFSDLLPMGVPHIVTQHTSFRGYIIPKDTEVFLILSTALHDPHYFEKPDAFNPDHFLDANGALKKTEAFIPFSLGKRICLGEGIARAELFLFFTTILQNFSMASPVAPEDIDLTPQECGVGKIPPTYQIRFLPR
Method: as §1

CYP3A4 = CYP3A4 (Homo sapiens (Human), UniProt P08684); assay: as above; type: in vitro ADME; details: mixed (pooled) human liver microsomes, probe midazolam, read-out: Inhibition rate % CYP3A4 (midazolam)
Sequence of CYP3A4 (P08684 whole entry): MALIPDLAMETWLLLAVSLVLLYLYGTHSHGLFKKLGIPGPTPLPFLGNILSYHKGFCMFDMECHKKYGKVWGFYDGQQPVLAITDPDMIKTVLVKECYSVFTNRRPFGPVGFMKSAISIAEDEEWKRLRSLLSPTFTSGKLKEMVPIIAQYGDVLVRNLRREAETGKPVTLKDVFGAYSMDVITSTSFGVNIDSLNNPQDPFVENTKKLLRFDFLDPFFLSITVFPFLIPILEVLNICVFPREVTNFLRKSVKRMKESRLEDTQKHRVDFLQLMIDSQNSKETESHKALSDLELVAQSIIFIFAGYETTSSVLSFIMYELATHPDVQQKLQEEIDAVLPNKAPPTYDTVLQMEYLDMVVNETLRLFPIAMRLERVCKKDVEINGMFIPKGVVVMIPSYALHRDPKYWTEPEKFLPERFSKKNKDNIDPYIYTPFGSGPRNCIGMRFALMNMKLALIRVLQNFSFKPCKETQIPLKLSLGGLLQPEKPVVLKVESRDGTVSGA
Method: as §1

CYP2C9 = CYP2C9 (Homo sapiens (Human), UniProt P11712); assay: as above; type: in vitro ADME; details: mixed (pooled) human liver microsomes, read-out: Inhibition rate % CYP2C9
Sequence of CYP2C9 (P11712 whole entry): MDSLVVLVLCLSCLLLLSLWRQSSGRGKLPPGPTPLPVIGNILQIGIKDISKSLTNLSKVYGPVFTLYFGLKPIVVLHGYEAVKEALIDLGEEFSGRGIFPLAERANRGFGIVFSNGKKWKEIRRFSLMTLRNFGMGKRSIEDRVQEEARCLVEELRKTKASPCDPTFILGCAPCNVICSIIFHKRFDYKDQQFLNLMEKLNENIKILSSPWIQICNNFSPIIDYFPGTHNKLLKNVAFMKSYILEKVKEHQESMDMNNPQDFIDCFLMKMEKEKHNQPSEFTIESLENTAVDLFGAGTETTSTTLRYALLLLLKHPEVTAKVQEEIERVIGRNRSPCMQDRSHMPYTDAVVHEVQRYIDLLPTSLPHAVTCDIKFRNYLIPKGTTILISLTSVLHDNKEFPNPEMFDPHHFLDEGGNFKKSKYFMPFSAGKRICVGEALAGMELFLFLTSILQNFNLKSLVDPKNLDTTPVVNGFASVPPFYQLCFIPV
Method: as §1

CYP2C8 = CYP2C8 (Homo sapiens (Human), UniProt P10632); assay: as above; type: in vitro ADME; details: mixed (pooled) human liver microsomes, read-out: Inhibition rate % CYP2C8
Sequence of CYP2C8 (P10632 whole entry): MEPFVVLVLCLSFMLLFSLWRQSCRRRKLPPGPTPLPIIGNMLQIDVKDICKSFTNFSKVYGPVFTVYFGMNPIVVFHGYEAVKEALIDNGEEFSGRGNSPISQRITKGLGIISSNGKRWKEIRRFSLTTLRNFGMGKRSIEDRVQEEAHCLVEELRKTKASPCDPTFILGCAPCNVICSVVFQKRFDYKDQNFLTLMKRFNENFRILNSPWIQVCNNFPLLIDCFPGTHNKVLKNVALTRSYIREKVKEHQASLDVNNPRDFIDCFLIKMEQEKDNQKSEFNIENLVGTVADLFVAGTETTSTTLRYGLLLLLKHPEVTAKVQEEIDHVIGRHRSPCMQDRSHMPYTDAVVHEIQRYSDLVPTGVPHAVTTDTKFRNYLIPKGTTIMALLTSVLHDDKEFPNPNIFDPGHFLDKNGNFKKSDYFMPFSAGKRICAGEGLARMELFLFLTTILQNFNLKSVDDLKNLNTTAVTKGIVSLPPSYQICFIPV
Method: as §1

CYP1A2 = CYP1A2 (Homo sapiens (Human), UniProt P05177); assay: as above; type: in vitro ADME
Sequence of CYP1A2 (P05177 whole entry): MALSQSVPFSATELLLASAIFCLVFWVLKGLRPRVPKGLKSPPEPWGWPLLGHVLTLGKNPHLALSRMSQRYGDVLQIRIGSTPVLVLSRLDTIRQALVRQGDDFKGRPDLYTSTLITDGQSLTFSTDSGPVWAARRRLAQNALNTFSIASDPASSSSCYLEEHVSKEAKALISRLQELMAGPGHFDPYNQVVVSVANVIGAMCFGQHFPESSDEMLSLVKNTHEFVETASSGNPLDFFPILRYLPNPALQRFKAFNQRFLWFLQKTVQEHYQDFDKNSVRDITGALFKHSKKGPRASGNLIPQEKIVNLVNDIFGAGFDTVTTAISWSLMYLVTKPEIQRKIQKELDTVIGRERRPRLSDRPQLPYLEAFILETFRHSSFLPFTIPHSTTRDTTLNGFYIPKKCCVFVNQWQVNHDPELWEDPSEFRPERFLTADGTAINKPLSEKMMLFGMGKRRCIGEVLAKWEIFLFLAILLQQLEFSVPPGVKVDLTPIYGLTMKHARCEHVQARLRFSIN
Method: as §1

[1] = Free plasma protein binding (PPB) assay, equilibrium dialysis; type: in vitro ADME; details: dialysis 6 hours at 37° C.
Method: The dried dialysis membrane was soaked in ultrapure water for 1 hour, then soaked in 20% ethanol for 20 minutes, and then rinsed with ultrapure water for 2 to 3 times. Finally, the dried dialysis membrane was soaked in ultrapure water for 20 minutes for later use. The frozen plasma was thawed in a water bath at 37° C. for about 20 minutes. pH value of the plasma was measured after thawing was complete, and was adjusted to 7.4 with 1% phosphoric acid solution or 0.1M sodium hydroxide solution. […] The pretreated dialysis membrane was assembled into the dialysis plate according to product instructions, and 100 μL of receiving solution (100 mM phosphate buffer solution plus 0.002% Tween 80) was added to one side of the permeable membrane in each dialysis well. 20 μL of each of the final solution of the test compound and the final solution of the control compound were taken in a 96-well sample plate, two duplicate samples were made, and T0 sample was obtained, which was stored in a −20° C. refrigerator. Another 100 μL of each of the above-mentioned final solutions were taken to the other side of the membrane in the dialysis device, two duplicate samples were made, and incubated at 37° C. with constant shaking for 6 hours. After 6 hours of incubation, 20 μL of each of the dialyzed receiving solution and the administered plasma were taken, two duplicate samples were made, and sample A and sample B were obtained. Corresponding blank plasma or receiving solution of corresponding volume were added to sample B and sample A, respectively, allowing the volume ratio of plasma to buffer in each sample well to be 1:1. 300 μL of sample-containing internal standard acetonitrile solution was added to all the sample wells. The mixture was mixed well, and centrifuged at 5,500×g for 10 minutes. 150 μL of corresponding ultrapure water was added to the corresponding sample wells of the 96-well sample plate. 150 μL of the supernatant was taken into the sample wells, and mixed well. Then, LC/MS/MS analysis was performed. The calculation formula of fu is: […]
where: CR: peak area ratio measured in the receiving chamber well CD: peak area ratio measured in the supply chamber well.

AT2R = AT2R (Homo sapiens (Human), UniProt P50052); assay: Binding assay of compounds to AT2R (Tag-lite HTRF ligand binding kit); details: 1 hour incubation at room temperature
Sequence of AT2R (P50052 whole entry): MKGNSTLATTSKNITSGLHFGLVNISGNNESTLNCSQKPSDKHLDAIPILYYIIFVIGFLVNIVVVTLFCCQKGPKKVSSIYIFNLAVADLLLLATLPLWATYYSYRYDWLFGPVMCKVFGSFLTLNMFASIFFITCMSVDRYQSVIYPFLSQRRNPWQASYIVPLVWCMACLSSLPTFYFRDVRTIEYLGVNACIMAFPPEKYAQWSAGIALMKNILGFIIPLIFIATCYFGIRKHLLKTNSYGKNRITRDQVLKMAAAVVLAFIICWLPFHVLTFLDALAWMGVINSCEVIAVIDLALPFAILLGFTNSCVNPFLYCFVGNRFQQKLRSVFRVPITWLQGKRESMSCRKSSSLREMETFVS
Method: The assay was performed in accordance with the instruction manual of Angiotensin AT2 Receptor Ligand Binding Assay Kit (#C1TT1AT2, Cisbio). First, a compound stock solution (10 mM) was diluted in a gradient at a 5× dilution ratio (including 10 concentrations, each with two replicates). 160 nL of compounds at different concentrations was added to a 384-well plate. 40 μL of 1×TLB was added to each well, and the mixture was shaken at room temperature for 15 minutes. 15 mL centrifuge tube added with 5 mL of 1×TLB was prepared in advance. The frozen labeled cells were thawed in a water bath at 37° C. (for 1 to 2 minutes), and the thawed cells were quickly transferred to the above 15 mL centrifuge tube. The mixture was mixed well and centrifuged at 1,000 g at room temperature for 5 minutes. The supernatant was removed, and the cells were resuspended by adding 2.7 mL 1×TLB. A new 384-well plate was taken, and 10 μL of mixed cells were added into the corresponding wells according to the assay design. 5 μL of 4× compound solution and 5 μL of 4× Tag-lite red fluorescent labeled ligand were added to each well. After incubation at room temperature for 1 hour, data were read using EnVision with an HTRF mode. The excitation light intensities at 665 nM and 615 nM in each well were read respectively, and the ratio was calculated (Ratio=A665nMIB615 nM). The IC50 value was calculated by means of GraphPad Prism8 software, where X represents logarithmic value of compound concentration; and Y represents ratio of A665 nM/B615 nM.

[2] = pH 7.4, Mouse plasma, read-out: fu % Mouse

- inhibition at 10 µM (CYP2C19): 11.7%
- inhibition at 10 µM (CYP2D6): 6.5%
- inhibition at 10 µM (CYP2B6): 18.3%
- inhibition at 10 µM (CYP3A4): 0%
- inhibition at 10 µM (CYP2C9): 20.2%
- inhibition at 10 µM (CYP2C8): 82.7%
- inhibition at 10 µM (CYP1A2): 0.54%
- fraction unbound at 6 h, 1 μM ([1]; dog, pH 7.4, Canine plasma, read-out: fu % Canine): 0.0116
- fraction unbound at 6 h, 1 μM [1, 2]: 0.0211
- fraction unbound at 6 h, 1 μM ([1]; pH 7.4, Rat plasma, read-out: fu % Rat): 0.0043
- IC50 (AT2R): 1.72 nM
SMILES: COC(=O)NS(=O)(=O)c1sc(CC(C)C)cc1-c1ccc(Cn2ccnc2C(C)(C)C)c(C#N)c1 [Compound I-13, Methyl ((3-(4-((2-(tert-butyl)-1H-imidazol-1-yl)methyl)-3-cyanophenyl)-5-isobutylthiophen-2-yl)sulfonyl)carbamate]

- inhibition at 10 µM (CYP2C19): 30.2%
- inhibition at 10 µM (CYP2D6): 10.4%
- inhibition at 10 µM (CYP2B6): 31.6%
- inhibition at 10 µM (CYP3A4): 21.1%
- inhibition at 10 µM (CYP2C9): 45.8%
- inhibition at 10 µM (CYP2C8): 39.5%
- inhibition at 10 µM (CYP1A2): 4.18%
- IC50 (AT2R): 1.35 nM
SMILES: CCCCOC(=O)NS(=O)(=O)c1sc(CC(C)C)cc1-c1ccc(Cn2ccnc2C)c(C#N)c1 [Compound I-12, Butyl ((3-(3-cyano-4-((2-methyl-1H-imidazol-1-yl)methyl)phenyl)-5-isobutylthiophen-2-yl)sulfonyl)carbamate]

- IC50 (AT2R): 4.5 nM
SMILES: CCCOC(=O)NS(=O)(=O)c1sc(CC(C)C)c(C)c1-c1ccc(Cn2ccnc2C)cc1 [Compound I-29, Propyl ((5-isobutyl-4-methyl-3-(4-((2-methyl-1H-imidazol-1-yl)methyl)phenyl)thiophen-2-yl)sulfonyl)carbamate]

- IC50 (AT2R): 1.51 nM
SMILES: COC(=O)NS(=O)(=O)c1sc(CC(C)C)cc1-c1ccc(Cn2ccnc2C)c(C#N)c1 [Compound I-24, Methyl ((3-(3-cyano-4-((2-methyl-1H-imidazol-1-yl)methyl)phenyl)-5-isobutylthiophen-2-yl)sulfonyl)carbamate]

- IC50 (AT2R): 4.86 nM
SMILES: CCCCOC(=O)NS(=O)(=O)c1sc(CC(C)C)c(C)c1-c1ccc(Cn2ccnc2C)cc1 [Compound I-31, Butyl ((5-isobutyl-4-methyl-3-(4-((2-methyl-1H-imidazol-1-yl)methyl)phenyl)thiophen-2-yl)sulfonyl)carbamate]

- inhibition at 10 µM (CYP2C19): 21.7%
- inhibition at 10 µM (CYP2D6): 11.4%
- inhibition at 10 µM (CYP2B6): 16.9%
- inhibition at 10 µM (CYP3A4): 0%
- inhibition at 10 µM (CYP2C9): 32.8%
- inhibition at 10 µM (CYP2C8): 50.6%
- inhibition at 10 µM (CYP1A2): 0%
- fraction unbound at 6 h, 1 μM [1, 2]: 0.0427
- IC50 (AT2R): 1.68 nM
SMILES: CCc1nccn1Cc1ccc(-c2cc(CC(C)C)sc2S(=O)(=O)NC(=O)OC)cc1C#N [Compound I-14, Methyl ((3-(3-cyano-4-((2-ethyl-1H-imidazol-1-yl)methyl)phenyl)-5-isobutylthiophen-2-yl)sulfonyl)carbamate]

- IC50 (AT2R): 4.28 nM
SMILES: CCCCOC(=O)NS(=O)(=O)c1sc(CC(C)C)cc1-c1ccc(Cn2ccnc2)cc1C [Compound I-1, Butyl ((3-(4-((1H-imidazol-1-yl)methyl)-2-methylphenyl)-5-isobutylthiophen-2-yl)sulfonyl)carbamate]

- IC50 (AT2R): 3.8 nM
SMILES: CCCCOC(=O)NS(=O)(=O)c1sc(CC(C)C)cc1-c1ccc(C(C)n2ccnc2)cc1 (stereo not shown) [Compound I-7, Butyl ((3-(4-(1-(1H-imidazol-1-yl)ethyl)phenyl)-5-isobutylthiophen-2-yl)sulfonyl)carbamate]

- IC50 (AT2R): 5.65 nM
SMILES: COC(=O)NS(=O)(=O)c1sc(CC(C)C)cc1-c1ccc(Cn2ccnc2C(C)(C)C)cc1C [Compound I-25, Methyl ((3-(4-((2-(tert-butyl)-1H-imidazol-1-yl)methyl)-2-methylphenyl)-5-isobutylthiophen-2-yl)sulfonyl)carbamate]

- IC50 (AT2R): 2.73 nM
SMILES: COC(=O)NS(=O)(=O)c1sc(CC(C)C)cc1-c1ccc(Cn2ccnc2C)c(C)c1 [Compound I-21, Methyl ((5-isobutyl-3-(3-methyl-4-((2-methyl-1H-imidazol-1-yl)methyl)phenyl)thiophen-2-yl)sulfonyl)carbamate]

- IC50 (AT2R): 1 nM
SMILES: Cc1cc(Cn2ccnc2C)ccc1-c1cc(CC(C)C)sc1S(=O)(=O)NC(=O)NCc1ccccn1 [Compound I-19, 5-isobutyl-3-(2-methyl-4-((2-methyl-1H-imidazol-1-yl)methyl)phenyl)-N-((pyridin-2-ylmethyl)carbamoyl)thiophene-2-sulfonamide]

- IC50 (AT2R): 2.39 nM
SMILES: CCCCOC(=O)NS(=O)(=O)c1sc(CC(C)C)cc1-c1ccc(Cn2ccnc2C)cc1C [Compound I-36, Butyl ((5-isobutyl-3-(2-methyl-4-((2-methyl-1H-imidazol-1-yl)methyl)phenyl)thiophen-2-yl)sulfonyl)carbamate]

- IC50 (AT2R): 3.95 nM
SMILES: CCCCOC(=O)NS(=O)(=O)c1sc(CC(C)C)cc1-c1ccc(Cn2ccnc2)cc1C#N [Compound I-3, Butyl ((3-(4-((1H-imidazol-1-yl)methyl)-2-cyanophenyl)-5-isobutylthiophen-2-yl)sulfonyl)carbamate]

- IC50 (AT2R): 1.61 nM
SMILES: COC(=O)NS(=O)(=O)c1sc(CC(C)C)c(C)c1-c1ccc(Cn2ccnc2C(C)C)cc1 [Compound I-33, Methyl ((5-isobutyl-3-(4-((2-isopropyl-1H-imidazol-1-yl)methyl)phenyl)-4-methylthiophen-2-yl)sulfonyl)carbamate]

- IC50 (AT2R): 2.09 nM
SMILES: COC(=O)NS(=O)(=O)c1sc(CC(C)C)cc1-c1ccc(Cn2ccnc2C(C)(C)C)cc1C#N [Compound I-17, Methyl (3-(4-((2-(tert-butyl)-1H-imidazol-1-yl)methyl)-2-cyanophenyl)-5-isobutylthiophen-2-yl)sulfonylcarbamate]
